PubChem BioAssay (NCI)
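Each compound was tested at five concentrations against cells in 96-well plates for 48 hours. GI50 is the concentration that inhibits growth by half. TGI is the concentration that stops growth completely.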

Tested on: NCI-H460 lung
Assay: NCI-60 cell line screen, 48 h

SMILES	TGI [µM]	GI50 [µM]
CC1CN1c1c(C(=O)/C=C/c2ccccc2)c(-c2ccccc2)nn(C)c1=O (stereo not drawn)	41.2	–
c1ccc(P(=Nc2ccccc2N=P(c2ccccc2)(c2ccccc2)c2ccccc2)(c2ccccc2)c2ccccc2)cc1	11	–
COCCOCOc1ccc(OCOCCOC)c2c1C(=O)c1ccccc1C2=O	> 100	–
CCO/C=C1\N=C(c2ccccc2Br)OC1=O	> 100	–
O=P1(Oc2ccccc2)C(c2ccccc2)C(c2ccccc2)=NN1c1ccccc1 (stereo not drawn)	60.9	–
COC(CN1C=C(Sc2ccccc2)CC1)OC	> 100	–
c1ccc2c3c([nH]c2c1)C1CCCN1CC3 (stereo not drawn)	> 10	–
COc1ccc(C=O)c(NC(=O)C(C)C)c1	> 100	–
Cc1cc2c(c(C(=O)O)c1C)-c1cccc(F)c1C2=O	> 100	–
Cc1ccc(NC(=O)c2ccccc2C(=O)O)cc1C	> 100	–
CC(C)=CCC/C(C)=C/CC/C(C)=C/CC/C=C(\C)CC/C=C(\C)CCC(=O)Nc1ccn(C2OC(CO)C(O)C2(F)F)c(=O)n1 (stereo not drawn)	3.74	0.0444
COc1ccc(-c2cc(=O)c3c(OC)c(OC)c(OC)c(OC)c3o2)cc1	> 100	–
CC(C)(C)CN1CCn2c(nc3c(N)nccc32)S1	17.3	4.25
COc1ccc2c(c1)OC1=C(C(=O)OC1)C2c1cc(OC)c2c(c1)OCO2 (stereo not drawn)	> 100	0.0374
CCn1c2ccccc2c2cc(/C=C(/C#N)C(N)=O)ccc21	13.3	1.67
COc1ccc(C(=O)N2c3ccccc3Sc3ccccc32)c(OC)c1	> 100	0.406
CN1CCN(CC(O)COc2c(Br)c(Br)c(Br)c3c2OC(C)(C)C3)CC1 (stereo not drawn)	10.6	3.1
CNS(=O)(=O)NNS(=O)(=O)c1ccc(Cl)cc1	> 100	–
CCN1C(=O)N(CC)C2C1NN=c1s/c(=C3\C(=O)N(CCc4ccccc4)c4ccccc43)c(=O)n12 (stereo not drawn)	1.88	0.361
CC1(C)N=C(N)N=C(N)N1c1ccc(CCCCc2ccc(S(=O)(=O)F)cc2)c(Cl)c1	12.6	0.0399
CCCCCCCCCCCCCP(=O)(O)NCC(N)=O	> 100	–
N#CN1CC[C@H](C(=O)Nc2ncc(-c3ccncc3)s2)C1	14.3	< 0.0208
Cn1cc(-c2nonc2-c2cn(C)c3ccccc23)c2ccccc21	> 100	0.579
CC1(C)OCC(C(O)C2OC(C)(C)OC2/C=N\O)O1 (stereo not drawn)	> 100	–
O=[N+]([O-])c1cc(S(=O)(=O)Oc2ccccc2)ccc1Cl	4.06	2.04
COc1ccc(C(Cl)=C(c2ccc(OCCN(C)C)cc2)c2ccc(OCCN(C)C)cc2)cc1	3.32	–
Cn1cncc1CC1COC(=O)C1C(O)c1ccccc1 (stereo not drawn)	> 100	–
CCCCn1c(=O)c2c(nc3n2CCCN3CCc2ccc(OCC(=O)NCCN(CC)CC)cc2)n(CCCC)c1=O	7.94	2.2

Tested on: SR leukemia
Assay: NCI-60 cell line screen, 48 h

SMILES	TGI [µM]	GI50 [µM]
c1ccc2c3c([nH]c2c1)C1CCCN1CC3 (stereo not drawn)	> 10	–
Cc1ccc(NC(=O)c2ccccc2C(=O)O)cc1C	> 100	–
CC(C)=CCC/C(C)=C/CC/C(C)=C/CC/C=C(\C)CC/C=C(\C)CCC(=O)Nc1ccn(C2OC(CO)C(O)C2(F)F)c(=O)n1 (stereo not drawn)	0.374	0.0391
COc1ccc(-c2cc(=O)c3c(OC)c(OC)c(OC)c(OC)c3o2)cc1	> 100	–
CC(C)(C)CN1CCn2c(nc3c(N)nccc32)S1	47.4	3.24
COc1ccc2c(c1)OC1=C(C(=O)OC1)C2c1cc(OC)c2c(c1)OCO2 (stereo not drawn)	> 100	0.0313
CCn1c2ccccc2c2cc(/C=C(/C#N)C(N)=O)ccc21	> 100	3.54
COc1ccc(C(=O)N2c3ccccc3Sc3ccccc32)c(OC)c1	> 100	0.562
CN1CCN(CC(O)COc2c(Br)c(Br)c(Br)c3c2OC(C)(C)C3)CC1 (stereo not drawn)	4.75	1.95
CNS(=O)(=O)NNS(=O)(=O)c1ccc(Cl)cc1	> 100	–
CCN1C(=O)N(CC)C2C1NN=c1s/c(=C3\C(=O)N(CCc4ccccc4)c4ccccc43)c(=O)n12 (stereo not drawn)	> 36.2	0.461
CC1(C)N=C(N)N=C(N)N1c1ccc(CCCCc2ccc(S(=O)(=O)F)cc2)c(Cl)c1	23.2	0.051
N#CN1CC[C@H](C(=O)Nc2ncc(-c3ccncc3)s2)C1	4.18	< 0.01
Cn1cc(-c2nonc2-c2cn(C)c3ccccc23)c2ccccc21	> 100	0.406
O=[N+]([O-])c1cc(S(=O)(=O)Oc2ccccc2)ccc1Cl	5.8	0.421
COc1ccc(C(Cl)=C(c2ccc(OCCN(C)C)cc2)c2ccc(OCCN(C)C)cc2)cc1	3.16	–
Cn1cncc1CC1COC(=O)C1C(O)c1ccccc1 (stereo not drawn)	> 100	–
CCCCn1c(=O)c2c(nc3n2CCCN3CCc2ccc(OCC(=O)NCCN(CC)CC)cc2)n(CCCC)c1=O	3.02	1.14

Tested on: ACHN renal
Assay: NCI-60 cell line screen, 48 h

SMILES	TGI [µM]	GI50 [µM]
CC1CN1c1c(C(=O)/C=C/c2ccccc2)c(-c2ccccc2)nn(C)c1=O (stereo not drawn)	33.7	–
c1ccc(P(=Nc2ccccc2N=P(c2ccccc2)(c2ccccc2)c2ccccc2)(c2ccccc2)c2ccccc2)cc1	10.2	–
COCCOCOc1ccc(OCOCCOC)c2c1C(=O)c1ccccc1C2=O	> 100	–
CCO/C=C1\N=C(c2ccccc2Br)OC1=O	> 100	–
O=P1(Oc2ccccc2)C(c2ccccc2)C(c2ccccc2)=NN1c1ccccc1 (stereo not drawn)	77.6	–
COC(CN1C=C(Sc2ccccc2)CC1)OC	> 100	–
c1ccc2c3c([nH]c2c1)C1CCCN1CC3 (stereo not drawn)	> 10	–
COc1ccc(C=O)c(NC(=O)C(C)C)c1	> 100	–
Cc1cc2c(c(C(=O)O)c1C)-c1cccc(F)c1C2=O	> 100	–
Cc1ccc(NC(=O)c2ccccc2C(=O)O)cc1C	> 100	–
CC(C)=CCC/C(C)=C/CC/C(C)=C/CC/C=C(\C)CC/C=C(\C)CCC(=O)Nc1ccn(C2OC(CO)C(O)C2(F)F)c(=O)n1 (stereo not drawn)	11.2	0.0266
COc1ccc(-c2cc(=O)c3c(OC)c(OC)c(OC)c(OC)c3o2)cc1	> 100	–
CC(C)(C)CN1CCn2c(nc3c(N)nccc32)S1	> 100	7.45
COc1ccc2c(c1)OC1=C(C(=O)OC1)C2c1cc(OC)c2c(c1)OCO2 (stereo not drawn)	> 100	0.267
Cc1cc(N(CCC#N)CCC#N)ccc1/C=C1/N=C(c2ccccc2)N(N)C1=O	> 100	–
CCn1c2ccccc2c2cc(/C=C(/C#N)C(N)=O)ccc21	> 100	> 76
COc1ccc(C(=O)N2c3ccccc3Sc3ccccc32)c(OC)c1	> 100	0.726
CN1CCN(CC(O)COc2c(Br)c(Br)c(Br)c3c2OC(C)(C)C3)CC1 (stereo not drawn)	24.7	11.3
CNS(=O)(=O)NNS(=O)(=O)c1ccc(Cl)cc1	> 100	–
CCN1C(=O)N(CC)C2C1NN=c1s/c(=C3\C(=O)N(CCc4ccccc4)c4ccccc43)c(=O)n12 (stereo not drawn)	–	0.767
CC1(C)N=C(N)N=C(N)N1c1ccc(CCCCc2ccc(S(=O)(=O)F)cc2)c(Cl)c1	> 100	0.789
CCCCCCCCCCCCCP(=O)(O)NCC(N)=O	> 100	–
N#CN1CC[C@H](C(=O)Nc2ncc(-c3ccncc3)s2)C1	> 100	0.0348
Cn1cc(-c2nonc2-c2cn(C)c3ccccc23)c2ccccc21	> 100	1.47
CC1(C)OCC(C(O)C2OC(C)(C)OC2/C=N\O)O1 (stereo not drawn)	> 100	–
O=[N+]([O-])c1cc(S(=O)(=O)Oc2ccccc2)ccc1Cl	9.05	3.22
COc1ccc(C(Cl)=C(c2ccc(OCCN(C)C)cc2)c2ccc(OCCN(C)C)cc2)cc1	4.72	–
Cn1cncc1CC1COC(=O)C1C(O)c1ccccc1 (stereo not drawn)	> 100	–
CCCCn1c(=O)c2c(nc3n2CCCN3CCc2ccc(OCC(=O)NCCN(CC)CC)cc2)n(CCCC)c1=O	10.6	2.98

Tested on: OVCAR-5 ovarian
Assay: NCI-60 cell line screen, 48 h

SMILES	TGI [µM]	GI50 [µM]
CC1CN1c1c(C(=O)/C=C/c2ccccc2)c(-c2ccccc2)nn(C)c1=O (stereo not drawn)	37	–
c1ccc(P(=Nc2ccccc2N=P(c2ccccc2)(c2ccccc2)c2ccccc2)(c2ccccc2)c2ccccc2)cc1	7.53	–
COCCOCOc1ccc(OCOCCOC)c2c1C(=O)c1ccccc1C2=O	> 100	–
CCO/C=C1\N=C(c2ccccc2Br)OC1=O	> 100	–
O=P1(Oc2ccccc2)C(c2ccccc2)C(c2ccccc2)=NN1c1ccccc1 (stereo not drawn)	50.2	–
COC(CN1C=C(Sc2ccccc2)CC1)OC	> 100	–
c1ccc2c3c([nH]c2c1)C1CCCN1CC3 (stereo not drawn)	> 10	–
COc1ccc(C=O)c(NC(=O)C(C)C)c1	> 100	–
Cc1cc2c(c(C(=O)O)c1C)-c1cccc(F)c1C2=O	> 100	–
Cc1ccc(NC(=O)c2ccccc2C(=O)O)cc1C	> 100	–
CC(C)=CCC/C(C)=C/CC/C(C)=C/CC/C=C(\C)CC/C=C(\C)CCC(=O)Nc1ccn(C2OC(CO)C(O)C2(F)F)c(=O)n1 (stereo not drawn)	26.3	1.21
COc1ccc(-c2cc(=O)c3c(OC)c(OC)c(OC)c(OC)c3o2)cc1	> 100	–
CC(C)(C)CN1CCn2c(nc3c(N)nccc32)S1	42	12.9
COc1ccc2c(c1)OC1=C(C(=O)OC1)C2c1cc(OC)c2c(c1)OCO2 (stereo not drawn)	> 100	0.153
Cc1cc(N(CCC#N)CCC#N)ccc1/C=C1/N=C(c2ccccc2)N(N)C1=O	> 100	–
CCn1c2ccccc2c2cc(/C=C(/C#N)C(N)=O)ccc21	3.95	0.668
COc1ccc(C(=O)N2c3ccccc3Sc3ccccc32)c(OC)c1	> 100	10
CN1CCN(CC(O)COc2c(Br)c(Br)c(Br)c3c2OC(C)(C)C3)CC1 (stereo not drawn)	43.7	17.7
CNS(=O)(=O)NNS(=O)(=O)c1ccc(Cl)cc1	> 100	–
CCN1C(=O)N(CC)C2C1NN=c1s/c(=C3\C(=O)N(CCc4ccccc4)c4ccccc43)c(=O)n12 (stereo not drawn)	–	0.927
CC1(C)N=C(N)N=C(N)N1c1ccc(CCCCc2ccc(S(=O)(=O)F)cc2)c(Cl)c1	83.8	0.124
CCCCCCCCCCCCCP(=O)(O)NCC(N)=O	> 100	–
N#CN1CC[C@H](C(=O)Nc2ncc(-c3ccncc3)s2)C1	> 77.3	0.0576
Cn1cc(-c2nonc2-c2cn(C)c3ccccc23)c2ccccc21	> 100	4.51
CC1(C)OCC(C(O)C2OC(C)(C)OC2/C=N\O)O1 (stereo not drawn)	> 100	–
O=[N+]([O-])c1cc(S(=O)(=O)Oc2ccccc2)ccc1Cl	5.17	2.29
COc1ccc(C(Cl)=C(c2ccc(OCCN(C)C)cc2)c2ccc(OCCN(C)C)cc2)cc1	3.3	–
Cn1cncc1CC1COC(=O)C1C(O)c1ccccc1 (stereo not drawn)	> 100	–
CCCCn1c(=O)c2c(nc3n2CCCN3CCc2ccc(OCC(=O)NCCN(CC)CC)cc2)n(CCCC)c1=O	18	7.58

Tested on: DLD-1 colon
Assay: NCI-60 cell line screen, 48 h

SMILES	TGI [µM]
CC1CN1c1c(C(=O)/C=C/c2ccccc2)c(-c2ccccc2)nn(C)c1=O (stereo not drawn)	34.5
c1ccc(P(=Nc2ccccc2N=P(c2ccccc2)(c2ccccc2)c2ccccc2)(c2ccccc2)c2ccccc2)cc1	13
COCCOCOc1ccc(OCOCCOC)c2c1C(=O)c1ccccc1C2=O	> 100
CCO/C=C1\N=C(c2ccccc2Br)OC1=O	> 100
O=P1(Oc2ccccc2)C(c2ccccc2)C(c2ccccc2)=NN1c1ccccc1 (stereo not drawn)	34.3
COC(CN1C=C(Sc2ccccc2)CC1)OC	> 100
Cc1cc2c(c(C(=O)O)c1C)-c1cccc(F)c1C2=O	> 100
Cc1cc(N(CCC#N)CCC#N)ccc1/C=C1/N=C(c2ccccc2)N(N)C1=O	> 100
CNS(=O)(=O)NNS(=O)(=O)c1ccc(Cl)cc1	> 100
CCCCCCCCCCCCCP(=O)(O)NCC(N)=O	> 100
CC1(C)OCC(C(O)C2OC(C)(C)OC2/C=N\O)O1 (stereo not drawn)	> 100
COc1ccc(C(Cl)=C(c2ccc(OCCN(C)C)cc2)c2ccc(OCCN(C)C)cc2)cc1	11.3

Tested on: LXFL 529 NSCLC
Assay: NCI-60 cell line screen, 48 h

SMILES	TGI [µM]
CC1CN1c1c(C(=O)/C=C/c2ccccc2)c(-c2ccccc2)nn(C)c1=O (stereo not drawn)	28.9
